Results: PubChem BioAssay AID1259407 (Chemical Carcinogenesis Research Information System (CCRIS), 2018)
Calls of active or inactive are those of the source. The rule behind the calls is not given here.

Tested on: CCRIS mutagenicity, Ames/micronucleus/aberration tests
Assay: CCRIS mutagenicity studies
Conditions: Test System: AMES SALMONELLA TYPHIMURIUM

For `C1O[C@@H]1[C@@H]1CO1`, the mutagenic call (Strain/Indicator: TA98, Metabolic Activation: HAMSTER, LIVER, S-9, AROCLOR 1254, Method: PREINCUBATION) was “inactive; negative”, the mutagenic call (Strain/Indicator: TA98, Metabolic Activation: HAMSTER, LIVER, S-9, AROCLOR 1254, Method: STANDARD PLATE) was “inactive; negative” and the mutagenic call (Strain/Indicator: TA98, Metabolic Activation: HAMSTER, LIVER, S-9, Method: PREINCUBATION) was “inactive; negative”. For the same compound, the mutagenic call (Strain/Indicator: TA98, Metabolic Activation: HAMSTER, LIVER, S-9, Method: STANDARD PLATE) was “inactive; negative”, the mutagenic call (Strain/Indicator: TA98, Metabolic Activation: MOUSE, LIVER, S-9, AROCLOR 1254, Method: PREINCUBATION) was “inactive; negative” and the mutagenic call (Strain/Indicator: TA98, Metabolic Activation: MOUSE, LIVER, S-9, AROCLOR 1254, Method: STANDARD PLATE) was “inactive; negative”. For the same compound, the mutagenic call (Strain/Indicator: TA98, Metabolic Activation: MOUSE, LIVER, S-9, Method: PREINCUBATION) was “inactive; negative”, the mutagenic call (Strain/Indicator: TA98, Metabolic Activation: MOUSE, LIVER, S-9, Method: STANDARD PLATE) was “inactive; negative” and the mutagenic call (Strain/Indicator: TA98, Metabolic Activation: NONE, Method: PREINCUBATION) was “inactive; negative”. The mutagenic call (Strain/Indicator: TA98, Metabolic Activation: NONE, Method: STANDARD PLATE) was “inactive; negative”, the mutagenic call (Strain/Indicator: TA98, Metabolic Activation: RAT, LIVER, S-9, AROCLOR 1254, Method: PREINCUBATION) was “inactive; negative” and the mutagenic call (Strain/Indicator: TA98, Metabolic Activation: RAT, LIVER, S-9, Method: PREINCUBATION) was “inactive; negative”. For the same compound, the mutagenic call (Strain/Indicator: TA98, Metabolic Activation: RAT, LIVER, S-9, Method: STANDARD PLATE) was “inactive; negative”, the mutagenic call (Strain/Indicator: TA100, Metabolic Activation: HAMSTER, LIVER, S-9, AROCLOR 1254, Method: PREINCUBATION) was “inactive; negative” and the mutagenic call (Strain/Indicator: TA100, Metabolic Activation: HAMSTER, LIVER, S-9, AROCLOR 1254, Method: STANDARD PLATE) was “active; positive”. The mutagenic call (Strain/Indicator: TA100, Metabolic Activation: HAMSTER, LIVER, S-9, Method: PREINCUBATION) was “inactive; negative”, the mutagenic call (Strain/Indicator: TA100, Metabolic Activation: HAMSTER, LIVER, S-9, Method: STANDARD PLATE) was “active; positive” and the mutagenic call (Strain/Indicator: TA100, Metabolic Activation: MOUSE, LIVER, S-9, AROCLOR 1254, Method: PREINCUBATION) was “inactive; negative”. The mutagenic call (Strain/Indicator: TA100, Metabolic Activation: MOUSE, LIVER, S-9, AROCLOR 1254, Method: STANDARD PLATE) was “active; positive”, the mutagenic call (Strain/Indicator: TA100, Metabolic Activation: MOUSE, LIVER, S-9, Method: PREINCUBATION) was “inactive; negative” and the mutagenic call (Strain/Indicator: TA100, Metabolic Activation: NONE, Method: PREINCUBATION) was “inactive; negative”. For the same compound, the mutagenic call (Strain/Indicator: TA100, Metabolic Activation: NONE, Method: STANDARD PLATE) was “active; positive”, the mutagenic call (Strain/Indicator: TA100, Metabolic Activation: RAT, LIVER, S-9, AROCLOR 1254, Method: PREINCUBATION) was “inactive; negative” and the mutagenic call (Strain/Indicator: TA100, Metabolic Activation: RAT, LIVER, S-9, Method: PREINCUBATION) was “inactive; negative”. The mutagenic call (Strain/Indicator: TA100, Metabolic Activation: RAT, LIVER, S-9, Method: STANDARD PLATE) was “active; positive”, the mutagenic call (Strain/Indicator: TA1535, Metabolic Activation: HAMSTER, LIVER, S-9, AROCLOR 1254, Method: PREINCUBATION) was “active; positive” and the mutagenic call (Strain/Indicator: TA1535, Metabolic Activation: HAMSTER, LIVER, S-9, AROCLOR 1254, Method: STANDARD PLATE) was “active; positive”. The mutagenic call (Strain/Indicator: TA1535, Metabolic Activation: HAMSTER, LIVER, S-9, Method: PREINCUBATION) was “active; positive”, the mutagenic call (Strain/Indicator: TA1535, Metabolic Activation: HAMSTER, LIVER, S-9, Method: STANDARD PLATE) was “active; positive” and the mutagenic call (Strain/Indicator: TA1535, Metabolic Activation: MOUSE, LIVER, S-9, AROCLOR 1254, Method: PREINCUBATION) was “active; positive”. For the same compound, the mutagenic call (Strain/Indicator: TA1535, Metabolic Activation: MOUSE, LIVER, S-9, AROCLOR 1254, Method: STANDARD PLATE) was “active; positive”, the mutagenic call (Strain/Indicator: TA1535, Metabolic Activation: MOUSE, LIVER, S-9, Method: PREINCUBATION) was “active; positive” and the mutagenic call (Strain/Indicator: TA1535, Metabolic Activation: MOUSE, LIVER, S-9, Method: STANDARD PLATE) was “active; positive”. For the same compound, the mutagenic call (Strain/Indicator: TA1535, Metabolic Activation: NONE, Method: PREINCUBATION) was “active; positive”, the mutagenic call (Strain/Indicator: TA1535, Metabolic Activation: NONE, Method: STANDARD PLATE) was “active; positive” and the mutagenic call (Strain/Indicator: TA1535, Metabolic Activation: RAT, LIVER, S-9, AROCLOR 1254, Method: PREINCUBATION) was “active; positive”.
